Marks after values point to notes of the source that are not given here.
Legend:
[1] = system: Gram-positive aerobic bacteria (S. aureus, MRSA, CA-MRSA); experiment: MIC90 against 150 clinical isolates of Gram-positive aerobic bacteria; type: cell-based; conditions: S. aureus (50 isolates)
S. aureus ATCC 29213 [2] = conditions: CLSI established QC range; cited from earlier work
S. aureus ATCC 29213 [3] = experiment: Broth microdilution MIC (Example 12), ATCC QC organism; conditions: ATCC QC organism (Table 102)
[4] = system: vancomycin-intermediate Staphylococcus aureus (VISA); experiment: Broth microdilution MIC (Example 12); type: cell-based
[5] = system: P. aeruginosa and A. baumannii; conditions: P. aeruginosa (MMX 103), QC; cited from earlier work
Enterobacteriaceae [6] = conditions: E. coli (MMX 102), QC; cited from earlier work
Escherichia coli [7] = experiment: Broth microdilution MIC (Example 12); type: cell-based
Klebsiella pneumoniae = experiment: Broth microdilution MIC (Example 12); type: cell-based
Enterobacteriaceae [8] = experiment: Broth microdilution MIC (Example 11); type: cell-based, E. coli, K. pneumoniae, Enterobacter cloacae
Escherichia coli [9] = conditions: E. coli ATCC 25922; CLSI established QC range; cited from earlier work
Pseudomonas aeruginosa [10] = conditions: P. aeruginosa ATCC 27853; CLSI established QC range; cited from earlier work
Acinetobacter baumannii = experiment: Broth microdilution MIC (Example 12); type: cell-based
Pseudomonas aeruginosa [11] = experiment: Broth microdilution MIC (Example 12); type: cell-based

CC(=O)NC[C@H]1CN(c2ccc(N3CCOCC3)c(F)c2)C(=O)O1 [LZD]
2 µg/mL: MIC ([4]; S. aureus NRS 13) | MIC ([4]; S. aureus NRS 24 (hVISA)) | MIC ([4]; S. aureus NRS 27)
4 µg/mL: MIC90 ([1]; CA-MRSA) | MIC90 ([1]; MRSA) | MIC90 ([1]; MSSA) | MIC (S. aureus ATCC 29213 [3]) | MIC ([4]; S. aureus NRS 2)
1 µg/mL: MIC ([4]; S. aureus NRS 1 (hVISA)) | MIC ([4]; S. aureus NRS 3) | MIC ([4]; S. aureus NRS 4) | MIC ([4]; S. aureus NRS 18) | MIC ([4]; S. aureus NRS 22)
(1-4) μg/mL: QC range of MIC (S. aureus ATCC 29213 [2])

C[C@H]1COc2c(N3CCN(C)CC3)c(F)cc3c(=O)c(C(=O)O)cn1c23 [LVX]
4 µg/mL: MIC (Escherichia coli [7]; E. coli CDC 114, ESBL/KPC) | MIC (Escherichia coli [7]; E. coli MMX 5756, ESBL) | MIC (Klebsiella pneumoniae; K. pneumoniae CDC 112, KPC) | MIC (Klebsiella pneumoniae; K. pneumoniae CDC 113, ESBL/KPC) | MIC (Klebsiella pneumoniae; K. pneumoniae CDC 158, ESBL/NDM/OXA) | MIC (Acinetobacter baumannii; A. baumannii CDC 275, ESBL/OXA) | MIC (Acinetobacter baumannii; A. baumannii CDC 308, ESBL/OXA) | MIC ([4]; S. aureus NRS 1 (hVISA)) | MIC ([4]; S. aureus NRS 2) | MIC ([4]; S. aureus NRS 4) | MIC ([4]; S. aureus NRS 18)
8 µg/mL: MIC (Escherichia coli [7]; E. coli CDC 118, ESBL/NDM) | MIC (Escherichia coli [7]; E. coli MMX 5745, KPC) | MIC (Escherichia coli [7]; E. coli MMX 5755, ESBL) | MIC (Escherichia coli [7]; E. coli MMX 5758, ESBL) | MIC (Acinetobacter baumannii; A. baumannii CDC 274, ESBL/OXA) | MIC (Acinetobacter baumannii; A. baumannii CDC 277, ESBL/OXA) | MIC (Acinetobacter baumannii; A. baumannii CDC 284, ESBL/OXA) | MIC (Acinetobacter baumannii; A. baumannii CDC 307, OXA) | MIC ([4]; S. aureus NRS 22) | MIC ([4]; S. aureus NRS 27) | MIC (Pseudomonas aeruginosa [11]; P. aeruginosa CDC 230, VIM/OXA) | MIC (Pseudomonas aeruginosa [11]; P. aeruginosa CDC 241, IMP/OXA) | MIC (Pseudomonas aeruginosa [11]; P. aeruginosa CDC 439, IMP) | MIC (Pseudomonas aeruginosa [11]; P. aeruginosa CDC 444, VIM)
0.03 µg/mL: MIC (Enterobacteriaceae [8]; K. pneumoniae (MMX 4684), ESBL, MEM-R)
0.12 µg/mL: MIC (Klebsiella pneumoniae; K. pneumoniae MMX 9029, ESBL) | MIC ([4]; S. aureus NRS 13) | MIC (Pseudomonas aeruginosa [11]; P. aeruginosa CDC 356, KPC)
(0.008-0.06) μg/mL: QC range of MIC (Escherichia coli [9])
≤0.008 µg/mL: MIC (Escherichia coli [7]; E. coli ATCC 25922, ATCC QC organism (Table 102)) | MIC (Escherichia coli [7]; E. coli ATCC 35218, ATCC QC organism (Table 102)) | MIC (Escherichia coli [7]; E. coli ATCC 35218, ESBL)
(0.06-0.5) μg/mL: QC range of MIC (S. aureus ATCC 29213 [2])
2 µg/mL: MIC (Acinetobacter baumannii; A. baumannii CDC 311, OXA) | MIC (Acinetobacter baumannii; A. baumannii CDC 312, OXA) | MIC (Acinetobacter baumannii; A. baumannii CDC 313, ESBL/OXA)
0.25 µg/mL: MIC (Pseudomonas aeruginosa [11]; P. aeruginosa CDC 516, KPC/AmpC)
>64 µg/mL: MIC (Enterobacteriaceae [8]; K. pneumoniae (MMX 4683), KPC-2, LVX-R, MEM-R, CAZ-R) | MIC (Enterobacteriaceae [8]; K. pneumoniae (MMX 5979), NDM-1, LVX-R, MEM-R, CAZ-R, GEN-R)
>8 µg/mL: MIC (Escherichia coli [7]; E. coli ATCC BAA-2471, NDM) | MIC (Escherichia coli [7]; E. coli CDC 435, NDM) | MIC (Escherichia coli [7]; E. coli CDC 451, KPC) | MIC (Escherichia coli [7]; E. coli CDC 503, ESBL/NDM) | MIC (Klebsiella pneumoniae; K. pneumoniae ATCC BAA-1705, ATCC QC organism (Table 102)) | MIC (Klebsiella pneumoniae; K. pneumoniae ATCC BAA-1705, ESBL/KPC) | MIC (Klebsiella pneumoniae; K. pneumoniae CDC 115, ESBL/KPC) | MIC (Klebsiella pneumoniae; K. pneumoniae CDC 120, ESBL/KPC) | MIC (Klebsiella pneumoniae; K. pneumoniae CDC 129, ESBL/KPC) | MIC (Klebsiella pneumoniae; K. pneumoniae CDC 135, ESBL/VIM) | MIC (Klebsiella pneumoniae; K. pneumoniae CDC 138, ESBL/NDM) | MIC (Acinetobacter baumannii; A. baumannii CDC 273, ESBL/OXA) | MIC ([4]; S. aureus NRS 3) | MIC ([4]; S. aureus NRS 24 (hVISA)) | MIC (Pseudomonas aeruginosa [11]; P. aeruginosa CDC 231, KPC/OXA) | MIC (Pseudomonas aeruginosa [11]; P. aeruginosa CDC 246, NDM/OXA) | MIC (Pseudomonas aeruginosa [11]; P. aeruginosa CDC 250, NDM/OXA) | MIC (Pseudomonas aeruginosa [11]; P. aeruginosa CDC 457, VIM) | MIC (Pseudomonas aeruginosa [11]; P. aeruginosa CDC 518, KPC/AmpC)
(0.008-0.06)^a μg/mL: CLSI Quality Control Range (MIC) (Enterobacteriaceae [6])
0.015 µg/mL: MIC (Klebsiella pneumoniae; K. pneumoniae CDC 126, ESBL/KPC) | MIC (Enterobacteriaceae [8]; E. coli (MMX 102), QC)
0.06 µg/mL: MIC (Enterobacteriaceae [8]; E. coli (MMX 8424), ESBL, CAZ-R) | MIC (S. aureus ATCC 29213 [3])
32 µg/mL: MIC (Enterobacteriaceae [8]; K. pneumoniae (MMX 4685), ESBL, LVX-R, MEM-R, CAZ-R)
64 µg/mL: MIC (Enterobacteriaceae [8]; E. cloacae (MMX 5981), NDM-1, LVX-R, MEM-R, CAZ-R, GEN-R) | MIC (Enterobacteriaceae [8]; K. pneumoniae (MMX 4653), KPC-3, LVX-R, MEM-R, CAZ-R) | MIC (Enterobacteriaceae [8]; K. pneumoniae (MMX 4694), KPC-3, LVX-R, MEM-R, CAZ-R)
0.5 µg/mL: MIC (Pseudomonas aeruginosa [11]; P. aeruginosa ATCC 27853, ATCC QC organism (Table 102))
(0.5-4)^a: CLSI Quality Control Range (MIC) [5]
16 µg/mL: MIC (Enterobacteriaceae [8]; E. coli (MMX 5980), NDM-1, LVX-R, MEM-R, CAZ-R, GEN-R) | MIC (Enterobacteriaceae [8]; E. coli (MMX 8423), ESBL, LVX-R, CAZ-R, GEN-R) | MIC (Enterobacteriaceae [8]; E. coli (MMX 8425), ESBL, LVX-R, CAZ-R, GEN-R)
(0.5-4) μg/mL: QC range of MIC (Pseudomonas aeruginosa [10])
1 µg/mL: MIC (Enterobacteriaceae [8]; K. pneumoniae (MMX 4622), KPC-2, MEM-R, CAZ-R) | MIC (Enterobacteriaceae [8]; K. pneumoniae (MMX 4623), KPC-2, MEM-R, CAZ-R, GEN-R) | MIC (Acinetobacter baumannii; A. baumannii NCTC 13304, OXA)

CN[C@H](CC(C)C)C(=O)N[C@H]1C(=O)N[C@@H](CC(N)=O)C(=O)N[C@H]2C(=O)N[C@H]3C(=O)N[C@H](C(=O)N[C@H](C(=O)O)c4cc(O)cc(O)c4-c4cc3ccc4O)[C@H](O)c3ccc(c(Cl)c3)Oc3cc2cc(c3O[C@@H]2O[C@H](CO)[C@@H](O)[C@H](O)[C@H]2O[C@H]2C[C@](C)(N)[C@H](O)[C@H](C)O2)Oc2ccc(cc2Cl)[C@H]1O [VAN]
0.5 µg/mL: MIC (S. aureus ATCC 29213 [3]) | MIC ([4]; S. aureus NRS 2)
4 µg/mL: MIC ([4]; S. aureus NRS 1 (hVISA)) | MIC ([4]; S. aureus NRS 4) | MIC ([4]; S. aureus NRS 18) | MIC ([4]; S. aureus NRS 22)
(0.5-2) μg/mL: QC range of MIC (S. aureus ATCC 29213 [2])
1 µg/mL: MIC90 ([1]; CA-MRSA) | MIC90 ([1]; MSSA)
2 µg/mL: MIC90 ([1]; MRSA) | MIC ([4]; S. aureus NRS 13) | MIC ([4]; S. aureus NRS 24 (hVISA)) | MIC ([4]; S. aureus NRS 27)
8 µg/mL: MIC ([4]; S. aureus NRS 3)

Source: patent US20230124862A1, “BISMUTH THIOL COMPOUNDS AND COMPOSITIONS AND METHODS OF TREATING MICROBIAL CO-INFECTIONS” (Microbion Corporation, priority 2020, published 2023)
